Activity calls are given as the source filed them.
How the values were obtained:
[1] = Luminescence Cell-Based Dose Retest to Confirm Inhibitors of Cancer Stem Cells. [Related pubchem assays (depositor defined):AID2717, AID2721]; assay type: functional; details: Homo sapiens
Cytochrome P450 2C19 = Cytochrome P450 2C19 (Homo sapiens, UniProt P33261); assay: Cytochrome panel assay with activity outcomes. Panel member name: p450-cyp2c19 Compounds with AC50 equal or less than 10 uM are considered active; assay type: functional
[2] = HEp-2 cell cytotoxicity, dose response, cytotoxicity control for RSV inhibitor project, HTS (AID 2410); assay type: functional; details: human respiratory syncytial virus
[3] = molecular target: T1, Rac GTPase-activating protein 1 (Homo sapiens, UniProt Q9H0H5); assay: MgcRacGAP GTPase-activating activity inhibitors, confirmation, biochemical, ADP Hunter fluorescence, primary and confirmatory (AID 624330); assay type: functional
T1 sequence (Q9H0H5 whole entry): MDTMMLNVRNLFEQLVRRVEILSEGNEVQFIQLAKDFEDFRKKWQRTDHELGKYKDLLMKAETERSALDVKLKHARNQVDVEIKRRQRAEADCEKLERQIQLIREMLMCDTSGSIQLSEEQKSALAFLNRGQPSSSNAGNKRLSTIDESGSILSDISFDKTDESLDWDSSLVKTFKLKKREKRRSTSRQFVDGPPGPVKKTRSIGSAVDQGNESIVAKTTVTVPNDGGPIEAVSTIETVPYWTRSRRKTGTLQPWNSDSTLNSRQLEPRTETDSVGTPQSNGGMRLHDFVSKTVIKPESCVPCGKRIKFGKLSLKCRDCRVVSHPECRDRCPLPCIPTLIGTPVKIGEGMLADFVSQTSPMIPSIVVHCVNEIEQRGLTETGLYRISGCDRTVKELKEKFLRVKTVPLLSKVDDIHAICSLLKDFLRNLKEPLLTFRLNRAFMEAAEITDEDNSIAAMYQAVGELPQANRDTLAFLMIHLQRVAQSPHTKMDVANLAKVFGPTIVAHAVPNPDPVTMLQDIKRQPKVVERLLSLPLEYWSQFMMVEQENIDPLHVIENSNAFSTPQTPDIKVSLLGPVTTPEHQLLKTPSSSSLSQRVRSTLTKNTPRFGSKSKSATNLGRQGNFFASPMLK

[4] = system: Streptococcus sp. 'group A'; assay: growth inhibition of control SK(-) GAS strain, dose response, counter-screen for streptokinase expression inhibitor project, luminescence, kanamycin, BacTiterGlo, confirmation (AID 1900); assay type: functional, organism-based
Streptococcus = assay: Group A Streptococcus viability loss, dose response, counter-screen for streptokinase expression inhibitor project, luminescence, BacTiterGlo (AID 1915); assay type: functional, organism-based;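 further: potency for reduction of bacterial viability or growth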
Cytochrome P450 1A2 = molecular target: T2, Cytochrome P450 1A2 (Homo sapiens, UniProt P05177);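 further: PubChem cytochrome P450 panel assay, CYP1A2 panel member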
T2 sequence (P05177 whole entry): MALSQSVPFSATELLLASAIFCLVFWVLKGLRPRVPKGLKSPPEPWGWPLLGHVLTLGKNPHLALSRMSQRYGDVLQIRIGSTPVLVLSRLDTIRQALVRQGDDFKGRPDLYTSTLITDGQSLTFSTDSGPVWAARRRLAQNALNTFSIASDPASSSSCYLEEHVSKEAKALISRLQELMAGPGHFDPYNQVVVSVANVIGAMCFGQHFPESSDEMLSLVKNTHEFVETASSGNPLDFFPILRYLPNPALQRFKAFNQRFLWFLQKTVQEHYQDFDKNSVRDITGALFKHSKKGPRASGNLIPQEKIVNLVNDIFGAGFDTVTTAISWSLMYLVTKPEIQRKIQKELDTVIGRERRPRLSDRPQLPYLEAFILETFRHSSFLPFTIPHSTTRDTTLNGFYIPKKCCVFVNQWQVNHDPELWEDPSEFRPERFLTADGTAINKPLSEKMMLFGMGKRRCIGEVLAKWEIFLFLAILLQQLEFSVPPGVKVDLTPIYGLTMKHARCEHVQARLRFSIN

Cytochrome P450 3A4 = Cytochrome P450 3A4 (Homo sapiens, UniProt P08684);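 further: CYP3A4 tested as one member of a cytochrome P450 panel screen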
[5] = molecular target: T3, Corticotropin-releasing factor receptor 2/Corticotropin-releasing factor-binding protein (Homo sapiens, UniProt P24387+Q13324); assay: activators of CRF receptor 2 with binding protein – uHTS hits, confirmation (AID 602473); assay type: functional; details: read-out: EC50_Mean
T3 sequence (Q13324 whole entry): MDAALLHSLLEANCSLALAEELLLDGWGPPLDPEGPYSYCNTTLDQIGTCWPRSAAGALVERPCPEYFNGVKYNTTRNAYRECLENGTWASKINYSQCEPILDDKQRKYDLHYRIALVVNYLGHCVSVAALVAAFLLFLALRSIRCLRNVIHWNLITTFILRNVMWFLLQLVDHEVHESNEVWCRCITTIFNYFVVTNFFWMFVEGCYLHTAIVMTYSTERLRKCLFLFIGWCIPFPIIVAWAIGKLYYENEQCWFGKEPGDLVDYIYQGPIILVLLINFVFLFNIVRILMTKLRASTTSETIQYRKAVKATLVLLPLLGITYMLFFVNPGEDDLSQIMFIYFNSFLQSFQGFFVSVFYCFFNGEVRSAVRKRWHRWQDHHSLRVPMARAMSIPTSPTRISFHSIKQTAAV
T3 sequence (P24387 whole entry): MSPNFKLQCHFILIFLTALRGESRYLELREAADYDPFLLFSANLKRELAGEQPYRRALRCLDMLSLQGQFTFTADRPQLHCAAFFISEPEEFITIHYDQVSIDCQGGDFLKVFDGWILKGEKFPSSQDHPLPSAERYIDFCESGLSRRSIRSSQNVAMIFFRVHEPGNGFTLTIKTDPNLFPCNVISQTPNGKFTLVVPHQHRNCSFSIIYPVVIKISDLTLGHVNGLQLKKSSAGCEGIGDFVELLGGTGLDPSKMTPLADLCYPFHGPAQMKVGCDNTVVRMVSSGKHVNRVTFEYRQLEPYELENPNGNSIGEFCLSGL

[6] = inhibitors of intracellular T. cruzi replication, confirmation, NIH3T3 host cells, beta-gal luminescence (AID 2044); assay type: functional, cell-based;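 further: intracellular parasites grown in NIH/3T3 mouse fibroblasts as host cells; luminescent beta-galactosidase reporter signal from transgenic T. cruzi replicating inside host cells; inhibitors lower the luminescence signal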
[7] = cytotoxicity toward NIH3T3 fibroblasts, dose response, counter-screen, cell-based, ATP luminescence, mouse fibroblasts (AID 2010); assay type: functional;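 further: cells exposed to compound for about 90 hours before reading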
[8] = Luminescence Cell-Based Dose Confirmation HTS to Identify Activators of 5'UTR Stem-Loop Driven Alpha-Synuclein mRNA Translation in H4 Neuroglioblastoma Cells. [Related pubchem assays: 1829 (Project Summary), 1814 (Primary HTS)]; assay type: functional
[9] = Luminescence Cell-Based Dose Response HTS to Identify Activators of Luciferase Translation or Activity in H4 […] Cells. [Related pubchem assays: 1829 (Project Summary), 1814 (Primary HTS)]; assay type: functional
H4 = assay: Luminescence Cell-Based Dose Response HTS to Identify Activators of 5'UTR Stem-Loop Driven Prion Protein mRNA Translation in H4 Neuroglioblastoma Cells. [Related pubchem assays: 1829 (Project Summary), 1814 (Primary HTS)]; assay type: functional; details: Homo sapiens

Chain of Cytochrome P450 2C19 (P33261 whole entry): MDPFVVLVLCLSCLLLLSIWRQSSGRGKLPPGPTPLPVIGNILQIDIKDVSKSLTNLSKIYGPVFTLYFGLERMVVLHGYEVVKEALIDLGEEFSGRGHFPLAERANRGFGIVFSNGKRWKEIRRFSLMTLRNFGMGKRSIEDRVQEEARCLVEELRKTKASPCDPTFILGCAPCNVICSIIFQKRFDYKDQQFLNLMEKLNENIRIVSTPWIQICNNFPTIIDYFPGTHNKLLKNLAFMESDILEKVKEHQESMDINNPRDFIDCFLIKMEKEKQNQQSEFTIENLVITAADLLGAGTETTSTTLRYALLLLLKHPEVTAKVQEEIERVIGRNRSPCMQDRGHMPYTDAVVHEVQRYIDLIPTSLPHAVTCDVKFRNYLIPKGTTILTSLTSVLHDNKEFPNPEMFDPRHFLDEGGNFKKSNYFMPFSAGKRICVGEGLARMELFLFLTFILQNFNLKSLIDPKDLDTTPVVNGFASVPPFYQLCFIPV
Chain of Cytochrome P450 3A4 (P08684 whole entry): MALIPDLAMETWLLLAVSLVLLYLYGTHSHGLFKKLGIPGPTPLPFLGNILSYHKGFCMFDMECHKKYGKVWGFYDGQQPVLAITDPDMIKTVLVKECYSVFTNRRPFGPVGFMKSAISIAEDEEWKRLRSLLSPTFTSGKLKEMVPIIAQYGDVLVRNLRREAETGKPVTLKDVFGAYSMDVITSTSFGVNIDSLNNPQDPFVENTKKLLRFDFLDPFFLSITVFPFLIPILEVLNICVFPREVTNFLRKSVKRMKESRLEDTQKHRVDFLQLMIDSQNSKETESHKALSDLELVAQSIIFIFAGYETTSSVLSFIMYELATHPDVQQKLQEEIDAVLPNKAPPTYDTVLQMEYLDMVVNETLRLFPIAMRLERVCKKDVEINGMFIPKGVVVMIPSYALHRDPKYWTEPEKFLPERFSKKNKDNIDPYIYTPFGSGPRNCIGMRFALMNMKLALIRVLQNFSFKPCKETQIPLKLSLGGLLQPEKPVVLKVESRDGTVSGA

## C=C[C@@H]1c2cc(C)ccc2N(S(=O)(=O)c2ccc(C)cc2)[C@H](c2ccc(OC(C)=O)cc2)C1(C#N)C#N
[1]
  AC50: 0.804 µM (active)

## CN(C)C(=O)Oc1cc(OC(=O)N(C)C)cc([C@@H](O)CNC(C)(C)C)c1
Cytochrome P450 2C19
  AC50: inconclusive

## O/N=C1\CCCc2ccc(Cl)cc21
[2]
  CC50: 19.5 µM (active)

## COc1ccc(Oc2ncc3nc(-c4ccccc4)c(=O)n(C4CC4)c3n2)cc1
Cytochrome P450 2C19; read-out: AC50
  AC50: 31.6 µM (inconclusive)

## CCOc1ccc(Cl)cc1CNCCNCCO.Cl
Cytochrome P450 2C19
  AC50: inconclusive

## CCc1ccccc1OC[C@@H](O)CN[C@H]1CCCc2ccccc21
Cytochrome P450 2C19; read-out: AC50
  AC50: 2 µM (inconclusive)

## COc1cc(/C=N/Nc2nc(C)cc(O)n2)ccc1O
[3]
  IC50: 23.9 µM (active)

## Cc1ccc(NC(=O)c2ccc(NCCCN3CCOCC3)c([N+](=O)[O-])c2)cc1Cl
[2]
  CC50: 12.8 µM (active)

## Cc1cc(C)c2nc(N3CCCC(C(=O)N4CCN(c5ncccn5)CC4)C3)sc2c1 (centres undefined)
[1]
  AC50: 5.98 µM (active)

## Cc1cccc(N(C)Cc2nnc(-c3cccc(Br)c3)o2)c1
[2]
  CC50: 33.1 µM (active)

## CCCCCn1cc[n+](C2=C([N-]S(=O)(=O)c3ccc(Br)cc3)C(=O)c3ccccc3C2=O)c1
[4]
  EC50: 4.17 µM (active)
Streptococcus
  EC50: 6.33 µM (active)

## C/C(=N\NC(=O)c1ccccc1C)c1ccc(NC(=O)c2cccs2)cc1
Cytochrome P450 2C19; read-out: AC50
  AC50: 31.6 µM (inconclusive)
Cytochrome P450 1A2
  AC50: 22.4 µM (inconclusive)

## CCNC(=O)CSc1nnc(C2CC2)n1-c1ccccc1
Cytochrome P450 2C19; read-out: AC50
  AC50: 22.4 µM (inconclusive)
Cytochrome P450 3A4
  AC50: 28.2 µM (inconclusive)

## COC(=O)[C@H](CCSC)NC(=O)NCc1ccccc1F
Cytochrome P450 2C19; read-out: AC50
  AC50: 0.0158 µM (inconclusive)

## CCOC(=O)c1ccc2[nH]c3c(c2c1)CCCC3NC=O (centres undefined)
[2]
  CC50: 36 µM (active)

## CCOc1cc(/C=N/N2CCN(Cc3ccccc3)CC2)ccc1O
[3]
  IC50: 86.7 µM (active)

## CN(C)/N=C/C=C1\CCC/C(=C\c2ccc(F)c(F)c2)C1=O
[1]
  AC50: 8.22 µM (active)

## Cc1ccc(S(=O)(=O)N[C@H](C(=O)OCC(=O)N2N=C(c3ccc(Cl)cc3)CC2c2ccco2)C(C)C)cc1 (some centres undefined)
[2]
  CC50: > 50 µM (active)
[5]
  EC50: > 53 µM (inactive)

## COc1ccc(-c2cn(CCc3c[nH]c4ccccc34)nn2)cc1
[1]
  AC50: 2.86 µM (active)

## C=C1CCO[C@@]2([C@H](O)[C@@](C)(O)CO)NC(=O)[C@]1(O)NC2=O
Cytochrome P450 2C19
  AC50: inconclusive

## CCCCNCC(O)(c1ccc(Cl)cc1)c1ccc(Cl)cc1
[2]
  CC50: 7.11 µM (active)

## O=C(CN1CCN(c2ncccn2)CC1)N1CCCC1
[3]
  IC50: 176 µM (active)

## Cc1nnc(-c2ccc(Oc3ccc(Cl)cc3)c([N+](=O)[O-])c2)o1
[1]
  AC50: < 0.16 µM (active)

## Oc1ccc2ccccc2c1Br
[3]
  IC50: 20.3 µM (active)

## CCOc1cc(/C=C2\C(=O)N(Cc3ccco3)C(C)=C2C(=O)OC)ccc1O
[3]
  IC50: 69.9 µM (active)

## O=C(/C=C/c1ccccc1)OCCNC1=NS(=O)(=O)c2ccccc21
[2]
  CC50: 36.4 µM (active)

## Cc1cnn(CCC(=O)NN=C(S)Nc2ccc(F)cc2)c1
Cytochrome P450 2C19; read-out: AC50
  AC50: 17.8 µM (inconclusive)
Cytochrome P450 3A4
  AC50: 17.8 µM (inconclusive)

## COc1ccc(Cc2nc3ccc(C(=O)NCCc4cccc(C)n4)cc3o2)cc1
[2]
  CC50: 19.7 µM (active)

## Cc1ccc(C(=O)Nc2cc(C(C)C)c(O)c(C(C)C)c2)cc1
[2]
  CC50: 32 µM (active)

## COC(=O)c1cccc(Nc2cc(C)nc(-c3ccccc3O)n2)c1
[6]
  EC50: 2.74 µM (active)
[7]
  EC50: 7.5 µM (active)
[1]
  AC50: 1.75 µM (active)

## CC1CCN(c2nc(-c3cccnc3)nc3scc(-c4ccccc4)c23)CC1
[1]
  AC50: 1.36 µM (active)

## COc1ccc(CCNC(=O)Cn2cnc3c2c(=O)n(C)c(=O)n3C)cc1OC
Cytochrome P450 2C19
  AC50: inconclusive
Cytochrome P450 1A2
  AC50: 3.16 µM (inconclusive)

## Cc1nn(-c2ccc3ccccc3c2)c(=O)c2ccccc12
[8]
  EC50: < 0.1 µM (active)
[9]
  EC50: 0.213 µM (active)
H4
  EC50: 29.7 µM (active)

## Cc1ccc2nc(NC(=O)C3CCCN(S(=O)(=O)c4c[nH]cn4)C3)sc2c1 (centres undefined)
[8]
  EC50: 30.4 µM (active)
[9]
  EC50: 23.4 µM (active)
H4
  EC50: 20.8 µM (active)

## Cc1ccc(C)c(Cc2c(C)nc3c(C(=O)NCc4ccc5c(c4)OCO5)cnn3c2C)c1
[6]
  EC50: 1.61 µM (active)
[7]
  EC50: > 60 µM (not active)
[1]
  AC50: 4.98 µM (active)

## CCOc1ccc(Nc2ncnc3c2nnn3Cc2ccccc2)cc1
[8]
  EC50: 17.7 µM (active)
[9]
  EC50: 18.8 µM (active)
H4
  EC50: 30.9 µM (active)

## Cc1cccc(NC(=O)CSc2nnnn2C)n1
Cytochrome P450 2C19; read-out: AC50
  AC50: 39.8 µM (inconclusive)

## COCCn1c(=O)c(-c2cccc(C#N)c2)nc2cnc(Oc3ccc(OC)cc3)nc21
Cytochrome P450 2C19; read-out: AC50
  AC50: 39.8 µM (inconclusive)
Cytochrome P450 1A2
  AC50: 12.6 µM (inconclusive)

## CS(=O)(=O)N1CCN(C2C3CC4CC(C3)CC2C4)CC1 (centres undefined)
[3]
  IC50: 152 µM (active)

## COc1ccc(/C=C2\CCCC3C2=NN(C(=O)c2ccco2)C3c2ccc(OC)c(OC)c2)cc1OC (centres undefined)
Cytochrome P450 2C19; read-out: AC50
  AC50: 31.6 µM (inconclusive)

## CCCn1c(=O)c(C(=O)N/N=C/c2ccc(F)cc2)c(O)c2ccccc21
[4]
  EC50: 1.99 µM (active)
Streptococcus
  EC50: 3.31 µM (active)

Reference: ChEMBL document CHEMBL1201862, “PubChem BioAssay data set” (2004)
